Measured values taken from patent US20050112573A1, “Method of detecting toxic substance” (priority 2001, published 2005).

Test system: yeast genes (level of expressed mRNA)
Assay: DNA chip analysis of expressed mRNA of yeast genes after 2 h culture with a toxic chemical substance
Assay type: cell-based, Saccharomyces cerevisiae S288C
Experimental: Yeast (Saccharomyces cerevtisiae S288C (α SUC2mal mel gap2 CUP1)) were cultured at 25° C. on YPD medium (yeast extract 1%, polypepton 2%, glucose 2%). One of toxic chemical substances was added to the cell at logarithmic growth phase, and the cell was further cultured for two hours. Cell was cultured without any chemical substance in the same condition, and was used as control. Concentrations of the chemical substances were defined to inhibit the growth of the yeast but not lead to death.
After the completion of cultivation, the culture was centrifuged to collect the cells. To the cells, sodium acetate buffer (50 mM sodium acetate, 10 mM EDTA, 1% SDS) was added, and the mixture was shaken at 65° C. for five minutes, followed by returning to room temperature, and obtaining the supernatant, which procedure was repeated two times. To the supernatant, ½ amount of a solution of phenol/chloroform was added, and the mixture was centrifuged to give a supernatant, which was added with an equal amount of chloroform, and the mixture was centrifuged to give a supernatant. To the supernatant, an equal amount of isopropanol containing 0.3 M sodium acetate was added, and the mixture was allowed to stand at room temperature for 30 minutes, after which the mixture was centrifuged to give a sediment of the whole RNAs. Seventy % ethanol was added to the sediment, and the mixture was again centrifuged to give a sediment, which was then dried and dissolved in water. mRNA was isolated from the whole RNAs as followings. In view of the fact that a poly A chain is attached to the 3′ terminus of mRNA, a polynucleotide having a poly T structure which was immobilized on the surface of latex beads was used to trap the mRNA, and then the mRNA was washed and eluted with spine column (Oligotex-dT30<Super>mRNA Purification Kit, Takara). Reverse transcription of the mRNA was conducted with a reverse transcriptase (Super Script II Reverse Transcriptase; catalogue No. 18064-014, GibcoBRL) using fluorescence-labeled nucleotides to give cDNAs that were introduced with Cy3-dUTP or Cy5-dUTP during the reverse transcription.
The labeled cDNAs were dissolved in TE buffer (10 mM Tris-HCl/1 mM EDTA, pH8.0), and the solution was dropped on the DNA chip containing the whole genes of yeast (DNA Chip Research Inc. Japan) so that the cDNAs were hybridized on the DNA chip at 65° C. for over 12 hours. The fluoresces intensity of the DNA chip was read with a scanner, and the ratio relative to the fluorescence intensity resulting from the absence of chemical substance was estimated as the following, which is shown in Tables 1 to 9: [formula]
In the Tables, “Intensity” indicated in the rightmost column is a value of the level of expressed mRNA of each gene in control cells as divided by the average level of the expressions of the whole genes.

CdCl2 [(2)]
The level of expressed mRNA in the presence of chemical substance/ (yeast gene YAL053W, ratio to control without chemical): 0.9
The level of expressed mRNA in the presence of chemical substance/The level of expressed mRNA in the absence of chemical substance (yeast gene YAR010C): 1.2
The level of expressed mRNA in the presence of chemical substance/The level of expressed mRNA in the absence of chemical substance (yeast gene YBL005W-A): 0.9
The level of expressed mRNA in the presence of chemical substance/The level of expressed mRNA in the absence of chemical substance (yeast gene YBL041W): 1.4
The level of expressed mRNA in the presence of chemical substance/The level of expressed mRNA in the absence of chemical substance (yeast gene YBL043W): 1.2
The level of expressed mRNA in the presence of chemical substance/ (yeast gene YBL048W, ratio to control without chemical substance, 2 h culture): 7.9
The level of expressed mRNA in the presence of chemical substance/The level of expressed mRNA in the absence of chemical substance (yeast gene YBL078C): 2.7
The level of expressed mRNA in the presence of chemical substance/ (yeast gene YBL107C, ratio to control without chemical substance, 2 h culture): 1.1
The level of expressed mRNA in the presence of chemical substance/in the absence of chemical substance (yeast gene YBR036C): 1.7
The level of expressed mRNA in the presence of chemical substance/The level of expressed mRNA in the absence of chemical substance (yeast gene YBR214W): 2.1
The level of expressed mRNA in the presence of chemical substance/in the absence of chemical substance (yeast gene YBR298C): 1.0
The level of expressed mRNA in the presence of chemical substance/The level of expressed mRNA in the absence of chemical substance (yeast gene YCL020W): 2.5
The level of expressed mRNA in the presence of chemical substance/The level of expressed mRNA in the absence of chemical substance (yeast gene YCL027W): 2.0
The level of expressed mRNA in the presence of chemical substance/The level of expressed mRNA in the absence of chemical substance (yeast gene YCR004C): 1.0
The level of expressed mRNA in the presence of chemical substance/The level of expressed mRNA in the absence of chemical substance (yeast gene YCR071C): 0.7
The level of expressed mRNA in the presence of chemical substance/The level of expressed mRNA in the absence of chemical substance (yeast gene YCR088W): 1.1
The level of expressed mRNA in the presence of chemical substance/The level of expressed mRNA in the absence of chemical substance (yeast gene YDL008W): 1.0
The level of expressed mRNA in the presence of chemical substance/ (yeast gene YDL072C, ratio to control without chemical): 1.1
The level of expressed mRNA in the presence of chemical substance/in the absence of chemical substance (yeast gene YDL078C): 1.1
The level of expressed mRNA in the presence of chemical substance/ (yeast gene YDL204W, ratio to control without chemical): 1.9
The level of expressed mRNA in the presence of chemical substance/in the absence of chemical substance (yeast gene YDL215C): 1.5
The level of expressed mRNA in the presence of chemical substance/ (yeast gene YDL222C, ratio to control without chemical): 1.1
The level of expressed mRNA in the presence of chemical substance/The level of expressed mRNA in the absence of chemical substance (yeast gene YDL238C): 1.0
The level of expressed mRNA in the presence of chemical substance/The level of expressed mRNA in the absence of chemical substance (yeast gene YDR055W): 2.1
The level of expressed mRNA in the presence of chemical substance/The level of expressed mRNA in the absence of chemical substance (yeast gene YDR084C): 0.9
The level of expressed mRNA in the presence of chemical substance/The level of expressed mRNA in the absence of chemical substance (yeast gene YDR085C): 1.8
The level of expressed mRNA in the presence of chemical substance/The level of expressed mRNA in the absence of chemical substance (yeast gene YDR104C): 1.1
The level of expressed mRNA in the presence of chemical substance/The level of expressed mRNA in the absence of chemical substance (yeast gene YDR115W): 0.9
The level of expressed mRNA in the presence of chemical substance/The level of expressed mRNA in the absence of chemical substance (yeast gene YDR259C): 1.0
The level of expressed mRNA in the presence of chemical substance/in the absence of chemical substance (yeast gene YDR297W): 0.8
The level of expressed mRNA in the presence of chemical substance/The level of expressed mRNA in the absence of chemical substance (yeast gene YDR315C): 1.4
The level of expressed mRNA in the presence of chemical substance/ (yeast gene YDR330W, ratio to control without chemical substance, 2 h culture): 1.5
The level of expressed mRNA in the presence of chemical substance/The level of expressed mRNA in the absence of chemical substance (yeast gene YDR358W): 1.1
The level of expressed mRNA in the presence of chemical substance/in the absence of chemical substance (yeast gene YDR387C): 0.9
The level of expressed mRNA in the presence of chemical substance/The level of expressed mRNA in the absence of chemical substance (yeast gene YDR388W): 0.7
The level of expressed mRNA in the presence of chemical substance/ (yeast gene YDR411C, ratio to control without chemical substance, 2 h culture): 2.8
The level of expressed mRNA in the presence of chemical substance/The level of expressed mRNA in the absence of chemical substance (yeast gene YDR432W): 0.8
The level of expressed mRNA in the presence of chemical substance/The level of expressed mRNA in the absence of chemical substance (yeast gene YDR481C): 2.3
The level of expressed mRNA in the presence of chemical substance/The level of expressed mRNA in the absence of chemical substance (yeast gene YDR510W): 1.3
The level of expressed mRNA in the presence of chemical substance/ (yeast gene YDR511W, ratio to control without chemical substance, 2 h culture): 1.7
The level of expressed mRNA in the presence of chemical substance/ (yeast gene YDR545W, ratio to control without chemical substance, 2 h culture): 1.2
The level of expressed mRNA in the presence of chemical substance/ (yeast gene YEL001C, ratio to control without chemical): 1.0
The level of expressed mRNA in the presence of chemical substance/The level of expressed mRNA in the absence of chemical substance (yeast gene YEL042W): 0.9
The level of expressed mRNA in the presence of chemical substance/The level of expressed mRNA in the absence of chemical substance (yeast gene YEL066W): 2.9
The level of expressed mRNA in the presence of chemical substance/ (yeast gene YER004W, ratio to control without chemical substance, 2 h culture): 1.5
The level of expressed mRNA in the presence of chemical substance/ (yeast gene YER035W, ratio to control without chemical substance, 2 h culture): 1.6
The level of expressed mRNA in the presence of chemical substance/The level of expressed mRNA in the absence of chemical substance (yeast gene YER039C): 1.2
The level of expressed mRNA in the presence of chemical substance/ (yeast gene YER079W, ratio to control without chemical substance, 2 h culture): 1.6
The level of expressed mRNA in the presence of chemical substance/ (yeast gene YER106W, ratio to control without chemical): 0.7
The level of expressed mRNA in the presence of chemical substance/The level of expressed mRNA in the absence of chemical substance (yeast gene YER107C): 0.5
The level of expressed mRNA in the presence of chemical substance/The level of expressed mRNA in the absence of chemical substance (yeast gene YER130C): 1.6
The level of expressed mRNA in the presence of chemical substance/ (yeast gene YER158C, ratio to control without chemical substance, 2 h culture): 0.9
The level of expressed mRNA in the presence of chemical substance/ (yeast gene YER163C, ratio to control without chemical substance, 2 h culture): 2.4
The level of expressed mRNA in the presence of chemical substance/ (yeast gene YER175C, ratio to control without chemical substance, 2 h culture): 1.2
The level of expressed mRNA in the presence of chemical substance/ (yeast gene YFL006W, ratio to control without chemical substance, 2 h culture): 2.8
